Reference: ChEMBL document CHEMBL1909558, “Discovery, synthesis and SAR analysis of novel selective small molecule S1P4-R agonists based on a (2Z,5Z)-5-((pyrrol-3-yl)methylene)-3-alkyl-2-(alkylimino)thiazolidin-4-one chemotype” (Bioorg Med Chem Lett, 2011)
The source made the active and inactive calls. No cut-off for these calls is given here.

Key:
[1] = target: T1, Sphingosine 1-phosphate receptor 4 (Homo sapiens) (UniProt O95977); test: Agonist activity at S1P4 receptor relative to control; assay type: functional
T1 sequence (whole entry): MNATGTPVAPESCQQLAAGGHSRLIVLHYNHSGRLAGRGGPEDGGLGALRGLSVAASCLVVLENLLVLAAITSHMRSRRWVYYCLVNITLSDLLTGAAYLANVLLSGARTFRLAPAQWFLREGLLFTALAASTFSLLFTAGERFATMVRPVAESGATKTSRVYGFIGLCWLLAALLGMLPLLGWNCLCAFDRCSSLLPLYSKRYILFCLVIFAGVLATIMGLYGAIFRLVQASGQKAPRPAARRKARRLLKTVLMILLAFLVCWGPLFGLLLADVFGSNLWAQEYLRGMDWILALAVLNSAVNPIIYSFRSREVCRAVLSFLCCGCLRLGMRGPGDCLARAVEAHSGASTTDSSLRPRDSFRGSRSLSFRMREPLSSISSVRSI

[2] = target: T2, Sphingosine 1-phosphate receptor 4 (Homo sapiens, UniProt O95977); test: Agonist activity at S1P4 receptor in human U2OS cells expressing VP16-GAL4 transcriptional factor and beta-arrestin/TEV protease fusion protein assessed as migration of VP16-GAL4 into nucleus by FRET based beta lactamase reporter gene assay; assay type: functional, cell-based
T2 sequence (O95977 whole entry): T1 sequence (whole entry)

[3] = target: T1, Sphingosine 1-phosphate receptor 4 (Homo sapiens); test: Agonist activity at S1P4 receptor in human U2OS cells expressing VP16-GAL4 transcriptional factor and beta-arrestin/TEV protease fusion protein assessed as migration of VP16-GAL4 into nucleus at 25 uM by FRET based beta lactamase reporter gene assay; assay type: functional, cell-based
[4] = target: T3, Sphingosine 1-phosphate receptor 1 (Homo sapiens, UniProt P21453); test: Agonist activity at S1P1 receptor; assay type: functional
[5] = target: Sphingosine 1-phosphate receptor 3 (Homo sapiens) (UniProt Q99500); test: Agonist activity at S1P3 receptor at 25 uM; assay type: functional
[6] = target: T4, Sphingosine 1-phosphate receptor 5 (Homo sapiens, UniProt Q9H228); test: Agonist activity at S1P5 receptor; assay type: functional
[7] = target: T5, Sphingosine 1-phosphate receptor 2 (Homo sapiens, UniProt O95136); test: Agonist activity at S1P2 receptor at 25 uM; assay type: functional
[8] = target: T4, Sphingosine 1-phosphate receptor 5; test: Agonist activity at S1P5 receptor relative to control; assay type: functional
[9] = target: T3, Sphingosine 1-phosphate receptor 1; test: Antagonist activity at S1P1 receptor at 25 uM; assay type: functional
[10] = target: T5, Sphingosine 1-phosphate receptor 2; test: Agonist activity at S1P2 receptor; assay type: functional
[11] = target: T3, Sphingosine 1-phosphate receptor 1; test: Agonist activity at S1P1 receptor relative to control; assay type: functional
[12] = target: T3, Sphingosine 1-phosphate receptor 1; test: Agonist activity at S1P1 receptor at 25 uM; assay type: functional
UOS2 [13] = test: Selectivity ratio of EC50 for S1P5 receptor to EC50 for S1P4 receptor in human […] cells; assay type: cell-based
[14] = target: T4, Sphingosine 1-phosphate receptor 5; test: Agonist activity at S1P5 receptor at 25 uM; assay type: functional
UOS2 [15] = test: Selectivity ratio of EC50 for S1P1 receptor to EC50 for S1P4 receptor in human […] cells; assay type: cell-based
[16] = target: T4, Sphingosine 1-phosphate receptor 5; test: Agonist activity at S1P5 receptor at 8.3 uM; assay type: functional
[17] = target: T3, Sphingosine 1-phosphate receptor 1; test: Agonist activity at S1P1 receptor at 8.3 uM; assay type: functional

T5 sequence (O95136 whole entry): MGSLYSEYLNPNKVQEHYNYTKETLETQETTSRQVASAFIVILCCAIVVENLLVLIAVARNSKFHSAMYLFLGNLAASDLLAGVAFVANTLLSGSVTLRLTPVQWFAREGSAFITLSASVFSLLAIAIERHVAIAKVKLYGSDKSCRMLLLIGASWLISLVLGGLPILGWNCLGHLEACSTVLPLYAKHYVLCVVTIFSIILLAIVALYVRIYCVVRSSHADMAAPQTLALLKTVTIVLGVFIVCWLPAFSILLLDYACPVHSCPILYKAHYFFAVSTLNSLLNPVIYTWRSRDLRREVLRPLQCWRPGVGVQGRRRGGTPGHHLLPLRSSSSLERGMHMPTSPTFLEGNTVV
T3 sequence (P21453 whole entry): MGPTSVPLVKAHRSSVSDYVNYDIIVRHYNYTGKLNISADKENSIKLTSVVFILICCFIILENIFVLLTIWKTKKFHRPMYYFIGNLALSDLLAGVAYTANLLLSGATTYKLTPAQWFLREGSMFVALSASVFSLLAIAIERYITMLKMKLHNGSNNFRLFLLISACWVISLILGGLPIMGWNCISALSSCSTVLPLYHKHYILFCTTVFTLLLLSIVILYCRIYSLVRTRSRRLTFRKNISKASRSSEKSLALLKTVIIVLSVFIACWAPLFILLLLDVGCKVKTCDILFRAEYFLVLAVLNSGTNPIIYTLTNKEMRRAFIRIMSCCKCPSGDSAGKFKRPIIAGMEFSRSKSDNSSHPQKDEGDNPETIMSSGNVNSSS
Sphingosine 1-phosphate receptor 3 (Homo sapiens), sequence (Q99500 whole entry): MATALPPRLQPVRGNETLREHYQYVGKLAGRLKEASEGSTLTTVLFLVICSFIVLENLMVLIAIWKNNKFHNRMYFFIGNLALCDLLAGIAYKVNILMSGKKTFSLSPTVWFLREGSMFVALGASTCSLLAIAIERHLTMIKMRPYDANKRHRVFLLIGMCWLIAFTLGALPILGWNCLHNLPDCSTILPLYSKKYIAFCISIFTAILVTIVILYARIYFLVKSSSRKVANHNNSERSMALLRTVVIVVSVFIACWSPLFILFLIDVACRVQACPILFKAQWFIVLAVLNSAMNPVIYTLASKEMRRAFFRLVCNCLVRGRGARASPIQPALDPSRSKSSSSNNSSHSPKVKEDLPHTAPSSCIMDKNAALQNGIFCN
T4 sequence (Q9H228 whole entry): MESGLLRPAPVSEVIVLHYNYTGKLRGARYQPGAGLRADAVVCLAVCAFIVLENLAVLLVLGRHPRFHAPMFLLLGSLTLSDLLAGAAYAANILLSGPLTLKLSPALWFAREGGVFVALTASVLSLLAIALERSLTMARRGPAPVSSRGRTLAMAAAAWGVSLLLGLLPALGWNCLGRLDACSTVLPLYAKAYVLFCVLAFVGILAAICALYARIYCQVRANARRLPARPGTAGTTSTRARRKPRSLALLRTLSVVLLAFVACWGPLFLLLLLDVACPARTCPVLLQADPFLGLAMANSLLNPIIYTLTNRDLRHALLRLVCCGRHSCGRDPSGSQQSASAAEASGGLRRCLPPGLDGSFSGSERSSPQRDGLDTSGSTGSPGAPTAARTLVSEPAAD

CC/N=C1\S/C(=C\c2cc(C)n(-c3ncccc3F)c2C)C(=O)N1CC
Efficacy [1]: 70% | EC50 [2]: 5400 nM

Cc1cc(/C=C2\SC(=N)NC2=O)c(C)n1-c1ccccc1F
Activity [3]: inactive

Cc1cc(/C=C2\SC(=O)N(C)C2=O)c(C)n1-c1ccccc1F
Activity [3]: inactive

C/N=C1\S/C(=C\c2cc(C)n(-c3ccccc3Br)c2C)C(=O)N1C
Activity [3]: inactive

Cc1cc(/C=C2\S/C(=N\CCO)N(C)C2=O)c(C)n1Cc1ccccc1
EC50 [2]: 396 nM

CCC/N=C1\NC(=O)/C(=C/c2cc(C)n(-c3ccccc3F)c2C)S1
Activity [3]: inactive

CCCCCCCCc1ccc([C@H]2C[C@H](COP(=O)(O)O)N[C@@H]2CO)cc1
EC50 [4]: > 10000 nM

Cc1cc(/C=C2\S/C(=N\c3ccccc3)NC2=O)c(C)n1-c1ccccc1F
Activity [3]: inactive

CCC/N=C1\S/C(=C\c2cc(C)n(-c3ccccc3F)c2C)C(=O)N1CCC
Activity [3]: inactive

COCC/N=C1\S/C(=C\c2cc(C)n(Cc3ccccc3)c2C)C(=O)N1CCOC
Activity [3]: inactive

CC/N=C1\S/C(=C\c2cc(C)n(-c3cccc4ccccc34)c2C)C(=O)N1CC
Activity [3]: inactive

CC/N=C1\S/C(=C\c2cc(C)n(-c3ccc(F)cc3F)c2C)C(=O)N1CC
Activity [5]: inactive | EC50 [4]: 816 nM | EC50 [6]: 6180 nM | EC50 [2]: 104 nM | Activity [7]: inactive

C/N=C1\S/C(=C\c2cc(C)n(Cc3ccc(F)cc3F)c2C)C(=O)N1C
Activity [5]: inactive | EC50 [4]: 287 nM | EC50 [6]: 37 nM | EC50 [2]: 147 nM | Activity [7]: inactive

C/N=C1\S/C(=C\c2cc(C)n(-c3ccc(Cl)cc3F)c2C)C(=O)N1C
Activity [5]: inactive | EC50 [4]: 3010 nM | EC50 [6]: 3400 nM | EC50 [2]: 440 nM | Activity [7]: inactive

C/N=C1\S/C(=C\c2cc(C)n(-c3cccc(F)c3)c2C)C(=O)N1C
Efficacy [1]: 60% | EC50 [2]: 1600 nM

C/N=C1\S/C(=C\c2cc(C)n(-c3ccccc3Cl)c2C)C(=O)N1C
Activity [3]: inactive

C/N=C1/NC(=O)/C(=C/c2cnn(-c3ccc(F)cc3F)c2)S1
Activity [3]: inactive

C/N=C1\S/C(=C\c2cc(C)n(-c3ccc(C)cc3C)c2C)C(=O)N1C
Activity [3]: inactive

CC/N=C1\S/C(=C\c2cc(C)n(Cc3c(F)cccc3F)c2C)C(=O)N1CC
Activity [5]: inactive | EC50 [4]: 18 nM | EC50 [6]: 22 nM | EC50 [2]: 314 nM | Activity [7]: inactive

COCC/N=C1\S/C(=C\c2cc(C)n(Cc3ccccc3)c2C)C(=O)N1C
Efficacy [8]: 80% | Activity [5]: inactive | EC50 [6]: 196 nM | EC50 [2]: 68 nM | Activity [7]: inactive | inhibition [9]: 85%

C/N=C1\S/C(=C\c2cc(C)n(-c3ccc(F)c(C#N)c3)c2C)C(=O)N1C
Efficacy [1]: 50% | EC50 [2]: 3200 nM

C/N=C1/NC(=O)/C(=C/c2cc(C)n(-c3ccc(F)cc3F)c2C)S1
EC50 [2]: 1000 nM

C/N=C1/NC(=O)/C(=C/c2cnn(-c3ccc(F)cc3)c2C)S1
EC50 [2]: 3800 nM

C/N=C1/NC(=O)/C(=C/c2ccn(Cc3ccccc3)c2)S1
Activity [3]: inactive

C/N=C1/NC(=O)/C(=C/c2cnn(-c3ccccc3F)c2)S1
Activity [3]: inactive

C/N=C1\S/C(=C\c2cc(C)n(CCc3ccccc3)c2C)C(=O)N1C
Efficacy [1]: 20% | EC50 [2]: 660 nM

C/N=C1\S/C(=C\c2cc(C)n(Cc3c(F)cccc3F)c2C)C(=O)N1C
Efficacy [5]: 70% | EC50 [4]: 34 nM | EC50 [6]: 34 nM | EC50 [2]: 92 nM | Efficacy [7]: 120%

C/N=C1\S/C(=C\c2cc(C)n(Cc3ccccc3)c2C)C(=O)N1C
Activity [5]: inactive | EC50 [4]: 720 nM | EC50 [6]: 144 nM | EC50 [10]: 3650 nM | EC50 [2]: 262 nM

C/N=C1/NC(=O)/C(=C/c2c(C)n(Cc3ccccc3)c3ccccc23)S1
Activity [3]: inactive

C/N=C1\S/C(=C\c2cc(C)n(-c3ccc(OC)c(C(F)(F)F)c3)c2C)C(=O)N1C
Activity [3]: inactive

C/N=C1\S/C(=C\c2cc(C)n(-c3ccc(F)cc3)c2C)C(=O)N1C
Efficacy [8]: 50% | Activity [5]: inactive | Efficacy [11]: 70% | EC50 [4]: 1800 nM | EC50 [6]: 652 nM | EC50 [2]: 433 nM | Activity [7]: inactive

COCC/N=C1\S/C(=C\c2cc(C)n(-c3ccc(F)cc3F)c2C)C(=O)N1C
Activity [5]: inactive | EC50 [6]: 2100 nM | Activity [12]: inactive | Ratio EC50 (UOS2 [13]): 37 | EC50 [2]: 56 nM | Activity [7]: inactive

CC/N=C1\NC(=O)/C(=C/c2cc(C)n(-c3ccccc3F)c2C)S1
Activity [3]: inactive

C/N=C1\O/C(=C\c2cc(C)n(-c3ccccc3F)c2C)C(=O)N1C
Activity [3]: inactive

N[C@H](CNC(=O)c1cc2c(-c3ccccc3Cc3ccccc3)cccc2[nH]1)C(=O)O
EC50 [4]: > 10000 nM | EC50 [6]: 2400 nM | EC50 [2]: 10 nM

C/N=C1\S/C(=C\c2cc(C)n(-c3ccccc3F)c2C)C(=O)N1C
Efficacy [8]: 70% | Activity [5]: inactive | EC50 [4]: 819 nM | EC50 [6]: 721 nM | EC50 [2]: 205 nM | Activity [7]: inactive

CC/N=C1\S/C(=C\c2cc(C)n(CCc3ccccc3)c2C)C(=O)N1CC
Activity [3]: inactive

C/N=C1\S/C(=C\c2cc(C)n(-c3ccc(F)cc3F)c2C)C(=O)N1C
Activity [14]: inactive | Activity [5]: inactive | EC50 [4]: 4470 nM | Ratio EC50 (UOS2 [15]): 21 | EC50 [2]: 210 nM | Activity [7]: inactive

CC/N=C1\S/C(=C\c2cc(C)n(-c3ccccc3F)c2C)C(=O)N1CC
Activity [14]: inactive | Activity [5]: inactive | Activity [12]: inactive | EC50 [2]: 250 nM | Activity [7]: inactive

CCCCCCCCc1ccc2nc([C@@H](N)COP(=O)(O)O)[nH]c2c1
EC50 [4]: 21 nM | EC50 [6]: 8.2 nM | EC50 [2]: 36 nM

Cc1cc(/C=C2\S/C(=N\C(C)C)N(C(C)C)C2=O)c(C)n1-c1ccccc1F
Activity [3]: inactive

C/N=C1\S/C(=C\c2cc(C)n(-c3ccc(F)cc3F)c2C)C(=O)N1CCOC
EC50 [2]: 1700 nM

C/N=C1\S/C(=C\c2cc(C)n(-c3ccccn3)c2C)C(=O)N1C
EC50 [2]: 1800 nM

C/N=C1\S/C(=C\c2cc(C)n(-c3ncccc3F)c2C)C(=O)N1C
Efficacy [1]: 70% | EC50 [2]: 3100 nM

CC/N=C1\S/C(=C\c2cc(C)n(-c3ccccc3)c2C)C(=O)N1CC
Activity [5]: inactive | EC50 [4]: 68 nM | EC50 [6]: 237 nM | EC50 [2]: 602 nM | Activity [7]: inactive

Cc1cc(/C=C2\S/C(=N\c3ccccc3)N(C)C2=O)c(C)n1-c1ccccc1F
EC50 [2]: 2800 nM

C/N=C1\S/C(=C\c2cc(C)n(Cc3ccccc3F)c2C)C(=O)N1C
Efficacy [5]: 25% | EC50 [4]: 250 nM | EC50 [6]: 51 nM | EC50 [2]: 72 nM | Efficacy [7]: 60%

C/N=C1\S/C(=C\c2cc(C)n(-c3cc(C)ccc3OC)c2C)C(=O)N1C
Activity [3]: inactive

Cc1cc(/C=C2\S/C(=N\CCO)N(C)C2=O)c(C)n1-c1ccccc1F
Activity [5]: inactive | Efficacy [16]: 60% | Efficacy [17]: 20% | EC50 [2]: 306 nM | Activity [7]: inactive

Cc1cc(/C=C2\S/C(=N\c3ccccn3)NC2=O)c(C)n1-c1ccccc1F
Efficacy [1]: 70% | EC50 [2]: 2100 nM

C/N=C1/NC(=O)/C(=C/c2cc(C)n(-c3ccccc3F)c2C)S1
EC50 [2]: 3600 nM

C/N=C1/NC(=O)/C(=C/c2c(C)nn(-c3ccc(F)cc3)c2C)S1
Activity [3]: inactive

CCCC/N=C1\S/C(=C\c2cc(C)n(-c3ccccc3F)c2C)C(=O)N1CCCC
Activity [3]: inactive

C/N=C1\S/C(=C\c2cc(C)n(-c3ccccc3C)c2C)C(=O)N1C
Activity [3]: inactive

C/N=C1\S/C(=C\c2cc(C)n(-c3cccc4ccccc34)c2C)C(=O)N1C
Activity [3]: inactive

C/N=C1/NC(=O)/C(=C/c2ccn(-c3ccccc3F)c2)S1
Activity [3]: inactive
